“Also recorded” adds a separate entry of the source.
Legend:
[1] = tested on: ANF, αSK-actin, αMyHC, βMyHC RNA in cardiomyocytes; test: RNA dot blot of fetal gene program; format: cell-based, rat
Procedure: FIGS. 5A-B. Treatment of cardiomyocytes with HDAC inhibitors blocks the fetal gene program associated with cardiomyocyte hypertrophy. […] The graphs represent three or more independent experiments.
Dot Blot analysis. Total RNA was isolated from cardiomyocytes that were either untreated, treated with phenylephrine, treated with TSA, or co-treated with phenylephrine and TSA. One microgram of RNA was blotted onto Nitrocellulose (Bio-Rad, Hercules, Calif.) and hybridized at 50° C. for 14 hrs with end-labeled oligos. (ANF, 5′-[…]-3, SEQ ID NO 1; αSK actin5′-[…]-3′, SEQ ID NO2; αMyHC,5′[…]-3′, SEQ ID NO 3; βMyHC5′-[…]-3′, SEQ ID NO 4; GAPDH5′-[…]-3′, SEQ ID NO 5). The blots were washed twice in 2×SSC/0.5% SDS solution and exposed to film (Kodak, Rochester, N.Y.) or phosphoimager (Amersham Bioscience, Sunnyvale, Calif.). The intensity of the hybridization of the probes was measured using ImageQuant® (Amersham Bioscience, Sunnyvale, Calif.).

[2] = tested on: ANF in neonatal cardiomyocytes; test: ANF chemiluminescence detection, dose response; format: cell-based, rat
Procedure: FIGS. 4A-C. […] As in the transfection experiments, phenylephrine (100 µM) induces ANF expression over three-fold. […] (FIGS. 4B and 4C) The graphs show a reduction of the chemiluminent detection of ANF in the culture medium with increasing concentrations of the HDAC inhibitors TSA (FIG. 4B) and sodium butyrate (FIG. 4C) when co-cultured with the hypertrophic stimulants FBS, PE or ET-1.
Chemilumenescence. Neonatal cardiomyocytes were seeded onto 96-well plates and treated for 72 hrs. The cells were washed twice in 1×PBS, fixed in 4% paraformaldehyde/1×PBS, and permeabilized with 0.1% Triton-X100. After blocking, the cells were incubated 1 hr. with 10 μg/ml monoclonal anti-ANF antibody (Biodesign). The wells were washed twice with 1% BSA/1× PBS and then incubated for 1 hr. with goat anti-mouse IgG-Fc-HRP (Jackson Labs, […]) at 1:1000 in 1× PBS/1% BSA. Cells were washed twice with 1% BSA/1×PBS, twice with 1× PBS, then blotted dry. Luminol (Pierce, Rockford, Ill.) was added and the chemiluminescence was detected in a Fusion Plate Reader (Perkin Elmer/Packard).

mouse model = settings: Takahashi et al, 1996; cited from earlier work
ras transformed cells = settings: Taunton et al., 1996; cited from earlier work
cardiomyocytes = test: Protein synthesis (tritiated leucine, S6 ribosomal protein); format: cell-based, rat
Procedure: FIG. 6. The effects of TSA treatment on the reorganization of the sarcomeres and protein synthesis. […] The graphs on the right show the content of S6 ribosome protein in cardiomyocytes after 24 hours co-treatment with PE and increasing concentrations of TSA or with serum and increasing concentrations of TSA.
Protein synthesis. Cardiomyocytes were incubated with (1.0 μCi/ml; 172 Ci/mmol sp. activity) tritiated-leucine (ICN Biochemicals, Inc., Irvine, Calif.) in treated RPMI media (Invitrogen, Carlsbad, Calif.). After 6 hrs incubation, the cells were washed twice with 1× PBS, then incubated in 10% TCA on ice for 30 min. Afterwards, the cells were washed twice with 5% TCA, once with water, and then lysed in […]. Lysates were measured in one-sixth volume of scintillation fluid by a scintillation counter (Beckman, Fullerton, Calif.).
S6 Ribosomal protocol. After blocking, cells were incubated in 1% BSA/1× PBS containing 50 μg/ml anti-S6 protein (Cell Signaling, […]) for 1 hr. After washing, the cells were incubated with IgG-HRP (Jackson Labs, […]) at a 1:400 dilution. The cells were then washed twice in 1% BSA/1× PBS, in 1× PBS, then blotted dry. Luminol (Pierce, Rockford, Ill.) was added and the chemiluminescence was detected in a Fusion reader (Perkin-Elmer/Packard).

[3] = tested on: ANF promoter in neonatal rat cardiomyocytes; test: ANF promoter transcription (luciferase) assay; format: cell-based
Procedure: FIGS. 3A-D. HDAC inhibitors block the activation of ANF reporter by phenylphrine without cytotoxicity. Neonatal rat cardiomyocytes were co-transfected with a total of 1 μg of the mouse 3 kb ANF promoter fragment and CMV-Lac Z plasmids. (FIG. 3A) The ANF promoter is minimally active in unstimulated cardiomyocytes. […] (FIG. 3B) Lac Z expression by the constitutive promoter CMV. Treatment with HDAC inhibitors augmented CMV activity with and without phenylephrine co-treatment. (FIGS. 3C and 3D) The graphs show the measurements of adenylate kinase activity remains constant in the medium after […] of culturing cardiomyocytes in the absence or presence of hypertrophic stimulants FBS, PE or ET-1.
Cardiomyocyte isolation. Hearts were harvested from 15-day timed-pregnant female Sprague-Dawley rats (Harlan, Houston, Tex.). After mincing in phosphate-buffered saline, cardiomyocytes were isolated from successive digestion fractions of 0.1% (w/v) Pancreatin (Sigma, St. Louis, Mo.) solution. Fractions were collected; resuspended in plating medium, pooled; and then plated for 2 hours to separate fibroblasts from cardiomyocyte population. Suspended cells were recollected and plated in 6-well dishes at 1×10^6 cells/well for transfection and immunofluorescence experiments, and 2×10^6 cells in 10 cm dishes for RNA analysis.
Transcription assay. Twenty-four hours after plating, cells were transfected with total of 1 μg/ml for 5 hrs using Lipofectamine Plus reagent (Invitrogen, Carlsbad, Calif.). Transfected cells were incubated 24 hrs then treated for an additional 24 hrs. Cells were lysed and their lysates assayed with the Luciferase Assay System (Promega, Madison, Wis.) for luminescence using Lucysoft 2 luminometer (Rosys Anthos, New Castle, Del.).

In the case of `CC(/C=C/C(=O)NO)=C\[C@@H](C)C(=O)c1ccc(N(C)C)cc1` [TSA, Trichostatin A], the αMyHC expression ([1]; TSA treatment) is reported as “induced the expression of αMyHC; also recorded: stimulated the expression of αMyHC”, the “phenylephrine-induced endogenous ANF RNA expression” value ([1]; phenylephrine 100 μM, TSA 85 nM, sodium butyrate 5 mM, HC-toxin 5 ng/ml) is reported as “prevented the phenylephrine-induced ANF response; also recorded: blocks the accumulation of ANF message” and the “phenylephrine-induced αSK-actin expression” value ([1]; phenylephrine co-treatment) is reported as “suppression of other genes activated by the hypertrophic stimulant; also recorded: lack of gene activation”. The “phenylephrine-induced βMyHC expression” value ([1]; phenylephrine co-treatment) was “down-regulating the fetal myosin chain isoform; also recorded: prevented the activation of βMyHC”, the “minimal concentration that inhibited the hypertrophic response (ANF) of each growth stimulant” value ([2]; FBS, PE, ET-1) was 40 nM and the “induction of ANF expression by FBS, PE and ET-1” value ([2]; increasing concentrations) was “countered the induction of ANF expression”. The “ANF expression at very low doses” value ([2]; very low doses (0.2 nM printed for sodium butyrate)) was “only a marginal increase”, the immunosuppression (mouse model) was “induces immunsuppression” and the acetylation (ras transformed cells) was “induce hyperacetylation”. For the same molecule, the “morphology of ras transformed cells” value (ras transformed cells) was “cause reversion of ras transformed cells to normal morphology”, the “phenylephrine-stimulated protein synthesis, 6 hours” value (cardiomyocytes; 6 hours co-culture with phenylephrine) was “had little effect on the stimulation of protein synthesis; also recorded: does not alter this increase” and the “protein synthesis induced by PE or serum, 24 hrs” value (cardiomyocytes; 24 hrs co-treatment) was “antagonized the protein synthesis normally induced by PE or serum in a dose-dependent manner”. The “activation of ANF promoter by phenylephrine” value ([3]; phenylephrine 100 μM, TSA 85 nM, NaBut 5 mM, HC-toxin 5 ng/ml) was “did block the promoter's activation by phenylephrine treatment completely; also recorded: prevented the activation of the ANF promoter” and the “ANF promoter activity, inhibitor alone” value ([3]; unstimulated cardiomyocytes) was “did not activate the ANF promoter”.

Source: patent publication US6706686B2, “Inhibition of histone deacetylase as a treatment for cardiac hypertrophy” (The Regents of the University of Colorado, priority 2001, dated 2004)
